Data taken from patent US20050101595A1, “N-containing cycloalkyl-substituted amino-thiazole derivatives and pharmaceutical compositions for inhibiting cell proliferation and methods for their use” (PFIZER INC., priority 2003, published 2005).
Where a name gives a salt, the structure may show the parent alone. Read-outs that look alike come from different tables or passages of the source.

Assays:
CDK2/Cyclin A = CDK2/Cyclin A (Homo sapiens, UniProt P24941); assay: Inhibition of CDK2/Cyclin A Retinoblastoma Kinase Activity; format: biochemical; details: for Ki: apparent Ki, CDK2/proteolyzed cyclin A, Rb fragment substrate, 25 μM ATP; for CDK2 % Inhibition At 0.03 μM: Table 2
Method in brief: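 Human CDK2, baculovirus/insect-cell expressed, complexed with proteolyzed cyclin A (10 nM or 19 nM CDK2) phosphorylates an Rb fragment with 25 μM [32P/33P]ATP at pH 7.4, 30° C, for 60 or 75 minutes under initial-rate conditions. Filter-captured radioactivity is read by phosphorimager; apparent Ki from competitive-inhibition fits.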

HCT-116 cell line = assay: Inhibition of cell growth, tetrazolium salt (MTT) assay; format: cell-based; details: for HCT-116 % Inhibition at 0.25 μM: 0.25 μM compound; for IC50: Homo sapiens, HCT-116, 120 h, MTT, three to five days, read-out: HCT-116 IC50
Method in brief: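 Cells in McCoy's 5A medium were left 4 h, then given graded compound concentrations in 0.5% (v/v) DMSO and incubated three to five days at 37° C (5% CO2). MTT was added to 0.2 mg/mL for 4 h more; DMSO-solubilized formazan was read at 540 nm against 0.5% DMSO-only controls.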

[1] = target: human CDK4 and genetically truncated (1-264) cyclin D3 (Homo sapiens, UniProt P11802); assay: Inhibition of CDK4/Cyclin D Retinoblastoma Kinase Activity; format: biochemical; details: for Ki: apparent Ki, CDK4/truncated cyclin D3, Rb fragment substrate, 25 μM ATP
Method in brief: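 Read-out: 32P/33P incorporation into Rb fragment (386-928) captured on nitrocellulose, phosphorimager. Enzyme 5 nM CDK4/cyclin D3(1-264) from insect cells; ATP 25 μM, pH 7.4, 30 °C, 20 min (60 min for tight binders). Ki from competitive fits.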

[2] = 0.1 μM compound, HCT-116, Table 4

Sequence of human CDK4 and genetically truncated (1-264) cyclin D3 (P11802 whole entry, the tested form may be a part): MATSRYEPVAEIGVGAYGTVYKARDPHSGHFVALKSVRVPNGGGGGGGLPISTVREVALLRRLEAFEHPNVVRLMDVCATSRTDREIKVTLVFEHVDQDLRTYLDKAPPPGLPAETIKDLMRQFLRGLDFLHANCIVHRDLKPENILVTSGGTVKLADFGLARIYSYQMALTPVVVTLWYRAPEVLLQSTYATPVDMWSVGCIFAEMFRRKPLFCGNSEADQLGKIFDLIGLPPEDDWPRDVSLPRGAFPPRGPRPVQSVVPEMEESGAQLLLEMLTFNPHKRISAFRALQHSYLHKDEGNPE
Sequence of human CDK4 and genetically truncated (1-264) cyclin D3 (P30281 1-264 partner): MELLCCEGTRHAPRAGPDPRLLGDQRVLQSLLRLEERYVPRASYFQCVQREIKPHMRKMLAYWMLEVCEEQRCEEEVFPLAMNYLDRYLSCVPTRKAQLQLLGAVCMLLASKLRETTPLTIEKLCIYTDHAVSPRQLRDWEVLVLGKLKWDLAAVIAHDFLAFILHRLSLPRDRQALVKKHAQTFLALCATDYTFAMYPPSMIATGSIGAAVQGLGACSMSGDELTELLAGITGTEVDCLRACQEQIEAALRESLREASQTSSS

| Ki (CDK2/Cyclin A) [nM] | IC50 (HCT-116 cell line; first HCT-116 column (c4)) [nM] | IC50 (HCT-116 cell line; second HCT-116 column (c5)) [nM] | Ki [1] [nM] | SMILES | other results |
| --- | --- | --- | --- | --- | --- |
| 1.7 | 360 | > 500 | 0.92 | CN1CCN(CCc2ccc(S(=O)(=O)N3CCC(Nc4nc(N)c(C(=O)c5c(F)cccc5F)s4)CC3)cn2)CC1 [Example N4, [4-Amino-2-(1-{6-[2-(4-methyl-piperazin-1-yl)-ethyl]-pyridine-3-sulfonyl}-piperidin-4-ylamino)-thiazol-5-yl]-(2,6-difluoro-phenyl)-methanone Hydrochloride Salt.] |  |
| 0.3 | > 500 | > 500 | 1.8 | Nc1nc(NC2CCN(S(=O)(=O)c3ccc(S)nc3)CC2)sc1C(=O)c1c(F)cccc1F [Example L4, 1-{4-Amino-2-[1-(6-mercapto-pyridine-3-sulfonyl)-piperidin-4-ylamino]-thiazol-5-yl}-1-(2,6-difluoro-phenyl)-methanone Hydrochloride.] |  |
| 1.5 | 75 | 300 | 0.95 | CN1CCCC1CCSc1ccc(S(=O)(=O)N2CCC(Nc3nc(N)c(C(=O)c4c(F)cccc4F)s3)CC2)cn1 (centres unmarked) [Example L6, 1-[4-Amino-2-(1-{6-[2-(1-methyl-pyrrolidin-2-yl)-ethylsulfanyl]-pyridine-3-sulfonyl}-piperidin-4-ylamino)-thiazol-5-yl]-1-(2,6-difluoro-phenyl)-methanone Dihydrochloride.] |  |

Continued, molecule first:

| SMILES | Ki (CDK2/Cyclin A) [nM] | IC50 (HCT-116 cell line; first HCT-116 column (c4)) [nM] | IC50 (HCT-116 cell line; second HCT-116 column (c5)) [nM] | Ki [1] [nM] | other results |
| --- | --- | --- | --- | --- | --- |
| C/C=C/C(=O)N1CCC(Nc2nc(N)c(C(=O)c3c(F)cccc3F)s2)CC1 [Example Q46] |  |  |  |  | CDK2 % Inhibition at 0.03 μM (CDK2/Cyclin A; 0.03 μM compound, Table 4): −9%; HCT-116 % Inhibition at 0.1 μM (HCT-116 cell line; [2]): 0%; HCT-116 % Inhibition at 0.25 μM (HCT-116 cell line; HCT-116, Table 4): 27%; CDK4 % Inhibition at 0.03 μM ([1]; 0.03 μM compound, Table 4): 25% |
| CC(=O)OCC(=O)N1CCC(Nc2nc(N)c(C(=O)c3c(F)cccc3F)s2)CC1 [Example Q76] |  |  |  |  | CDK2 % Inhibition at 0.03 μM (CDK2/Cyclin A; 0.03 μM compound, Table 4): 27%; HCT-116 % Inhibition at 0.1 μM (HCT-116 cell line; [2]): 4%; HCT-116 % Inhibition at 0.25 μM (HCT-116 cell line; HCT-116, Table 4): 36%; CDK4 % Inhibition at 0.03 μM ([1]; 0.03 μM compound, Table 4): 31% |
| CN1CCC[C@@H](Oc2ccc(S(=O)(=O)N3CCC(Nc4nc(N)c(C(=O)c5c(F)cccc5F)s4)CC3)cn2)C1 [Example H26, (4-Amino-2-{1-[6-(1-methyl-piperidin-3R-yloxy)-pyridine-3-sulfonyl]-piperidin-4-ylamino}-thiazol-5-yl)-(2,6-difluoro-phenyl)-methanone Hydrochloride] | 0.37 | 22 | 80 | 1.3 |  |
| Nc1nc(NC2CCN(S(=O)(=O)c3ccc(N4CCC(O)CC4)nc3)CC2)sc1C(=O)c1c(F)cccc1F [Example G9, 1-{4-Amino-2-[1-(4Hydroxy-3,4,5,6-tetrahydro-2H-[1,2′]bipyridinyl-5′-sulfonyl)-piperidin-4-ylamino]-thiazol-5-yl}-1-(2,6-difluoro-phenyl)-methanone] | 0.52 | 170 | 1800 | 2.2 |  |
| C[C@@H]1CN(c2ncc(S(=O)(=O)N3CCC(Nc4nc(N)c(C(=O)c5c(F)cccc5F)s4)CC3)cn2)C[C@H](C)N1 [Example G33, (4-Amino-2-{1-[2-(3,5-dimethyl-piperazine-1-yl)-pyrimidine-5-sulfonyl]-piperidine-4-ylamino}-thiazol-5-yl)-(2,6-difluoro-phenyl)-methanone Hydrochloride Salt] | 1 | 51 | 800 | 0.3 |  |
| CS(=O)(=O)N1CCCC(Nc2nc(N)c(C(=O)c3c(F)cccc3F)s2)C1 (centres unmarked) [Example F37, [4-Amino-2-(1-methanesulfonyl-piperidin-3-ylamino)-thiazol-5-yl]-(2,6-difluoro-phenyl)-methanone] | 430 | 700 | 1500 | 1100 |  |
| COc1ccc(C(=O)N2CCC(Nc3nc(N)c(C(=O)c4c(F)cccc4F)s3)CC2)c(OC)c1 [Example R8] |  |  |  |  | CDK2 % Inhibition at 0.03 μM (CDK2/Cyclin A; at 0.03 μM): −11%; HCT-116 % Inhibition at 0.1 μM (HCT-116 cell line; HCT-116 cells, at 0.1 μM): 8%; HCT-116 5 Inhibition at 0.25 μM (HCT-116 cell line; HCT-116 cells): 41; CDK4 % Inhibition at 0.03 μM ([1]; at 0.03 μM): 13% |
| CNc1ccccc1C(=O)N1CCC(Nc2nc(N)c(C(=O)c3c(F)cccc3F)s2)CC1 [Example R112] |  |  |  |  | CDK2 % Inhibition at 0.03 μM (CDK2/Cyclin A; at 0.03 μM): 12%; HCT-116 % Inhibition at 0.1 μM (HCT-116 cell line; HCT-116 cells, at 0.1 μM): 39%; HCT-116 5 Inhibition at 0.25 μM (HCT-116 cell line; HCT-116 cells): 93; CDK4 % Inhibition at 0.03 μM ([1]; at 0.03 μM): 21% |
| Nc1nc(NC2CCN(S(=O)(=O)c3cccs3)CC2)sc1C(=O)c1c(F)cccc1F [Example F51, {4-Amino-2-[1-(thiophene-2-sulfonyl)-piperidin4-ylamino]-thiazol-5-yl}-(2,6-difluoro-phenyl)-methanone] | 1.5 | 300 | 630 | 5.5 |  |
| COC(=O)[C@H](COC(C)(C)C)NC(=O)N1CCC(Nc2nc(N)c(C(=O)c3c(F)cccc3F)s2)CC1 [Example O79] |  |  |  |  | CDK2 % Inhibition At 0.03 μM (CDK2/Cyclin A; 0.03 μM compound): 32%; HCT-116 % Inhibition at 0.25 μM (HCT-116 cell line; HCT-116, Table 2): 49%; CDK4 % Inhibition at 0.03 μM ([1]; 0.03 μM compound, Table 2): 8% |
| CN(C)CCN(C)Cc1ccc(S(=O)(=O)N2CCC(Nc3nc(N)c(C(=O)c4c(F)cccc4F)s3)CC2)cc1 [Example J9, 1-{4-Amino-2-[1-(4-{[(2-dimethylamino-ethyl)-methyl-amino]-methyl}-benzenesulfonyl)-piperidin-4-ylamino]-thiazol-5-yl}-1-(2,6-difluoro-phenyl)-methanone Hydrochloride Salt.] | 2.4 | 130 | 320 | 0.85 |  |
| COc1cc(NC(=O)N2CCC(Nc3nc(N)c(C(=O)c4c(F)cccc4F)s3)CC2)cc(OC)c1 [Example O45] |  |  |  |  | CDK2 % Inhibition At 0.03 μM (CDK2/Cyclin A; 0.03 μM compound): 35%; HCT-116 % Inhibition at 0.25 μM (HCT-116 cell line; HCT-116, Table 2): 32%; CDK4 % Inhibition at 0.03 μM ([1]; 0.03 μM compound, Table 2): 17% |
| Nc1nc(NC2CCN(C(=O)Nc3cccnc3)CC2)sc1C(=O)c1c(F)cccc1F [Example O86] |  |  |  |  | CDK2 % Inhibition At 0.03 μM (CDK2/Cyclin A; 0.03 μM compound): 32%; HCT-116 % Inhibition at 0.25 μM (HCT-116 cell line; HCT-116, Table 2): 47%; CDK4 % Inhibition at 0.03 μM ([1]; 0.03 μM compound, Table 2): 23% |
| Nc1nc(NC2CCN(S(=O)(=O)c3ccc(OCCn4ccnc4)nc3)CC2)sc1C(=O)c1c(F)cccc1F [Example H9, 1-(4-Amino-2-{1-[6-(2-imidazol-1-yl-ethoxy)-pyridine-3-sulfonyl]-piperidin-4-ylamino}-thiazol-5-yl)-1-(2,6-difluoro-phenyl)-methanone Hydrochloride] | < 0.5 | 480 | 3100 | 1.2 |  |
| COc1ccc(CC(=O)N2CCC(Nc3nc(N)c(C(=O)c4c(F)cccc4F)s3)CC2)cc1OC [Example Q72] |  |  |  |  | CDK2 % Inhibition at 0.03 μM (CDK2/Cyclin A; 0.03 μM compound, Table 4): 18%; HCT-116 % Inhibition at 0.1 μM (HCT-116 cell line; [2]): 8%; HCT-116 % Inhibition at 0.25 μM (HCT-116 cell line; HCT-116, Table 4): 29%; CDK4 % Inhibition at 0.03 μM ([1]; 0.03 μM compound, Table 4): 43% |
| Nc1nc(NC2CCN(C(=O)C(Cl)(c3ccccc3)c3ccccc3)CC2)sc1C(=O)c1c(F)cccc1F [Example Q51] |  |  |  |  | CDK2 % Inhibition at 0.03 μM (CDK2/Cyclin A; 0.03 μM compound, Table 4): 4%; HCT-116 % Inhibition at 0.1 μM (HCT-116 cell line; [2]): 0%; HCT-116 % Inhibition at 0.25 μM (HCT-116 cell line; HCT-116, Table 4): 34%; CDK4 % Inhibition at 0.03 μM ([1]; 0.03 μM compound, Table 4): 22% |
| CCOC(=O)C(Cc1ccccc1)NC(=O)N1CCC(Nc2nc(N)c(C(=O)c3c(F)cccc3F)s2)CC1 (centres unmarked) [Example O75] |  |  |  |  | CDK2 % Inhibition At 0.03 μM (CDK2/Cyclin A; 0.03 μM compound): 25%; HCT-116 % Inhibition at 0.25 μM (HCT-116 cell line; HCT-116, Table 2): 41%; CDK4 % Inhibition at 0.03 μM ([1]; 0.03 μM compound, Table 2): 10% |
| CCCCS(=O)(=O)N1CCC(Nc2nc(N)c(C(=O)c3c(F)cccc3F)s2)CC1 [Example P27] |  |  |  |  | CDK2 % Inhibition at 0.03 μM (CDK2/Cyclin A; 0.03 μM compound, Table 3): 16%; HCT-116 % Inhibition at 0.1 μM (HCT-116 cell line; 0.1 μM compound, HCT-116, Table 3): 4%; HCT-116 % Inhibition at 0.25 μM (HCT-116 cell line; HCT-116, Table 3): 23%; CDK4 % Inhibition at 0.03 μM ([1]; 0.03 μM compound, Table 3): 41% |
